± gives the standard deviation of the averaged measurements.

Holding throughout (assay): level (log10 ratio to DMSO vehicle control); higher = higher biomarker level / cell amount than vehicle control
Common to all, as to conditions: in DMSO

Compound in test [1]: NC(=O)C(F)(F)C(F)(F)C(F)(F)C(F)(F)C(F)(F)C(F)(F)C(F)(F)F [Perfluorooctanamide]
As to the method:
(§1)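 BioMAP Diversity Plus panel of 12 human primary cell co-culture systems (3C, 4H, LPS, SAg, BT, BF4T, BE3C, CASM3C, HDF3CGF, KF3CT, MyoF, Mphg). Compounds were added 1 h before stimulation and left for 24 h (MyoF 48 h; BT 72 h for soluble read-outs or 6 d for IgG). Biomarkers were read by ELISA, cytotoxicity by SRB, PBMC viability and proliferation by Alamar Blue. Each well value was divided by the mean of 8 DMSO control wells on the same plate and log10 transformed; duplicate blinded samples were tested at 4 concentrations.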

Compound in test [2]: O=C(O)C(F)(F)C(F)(F)C(F)(F)C(=O)O [Hexafluoroglutaric acid]
As to the method:
as §1

Compound in test [3]: OCC(F)(F)C(F)(F)C(F)(F)F [1H,1H-Heptafluorobutanol]
As to the method: as §1

Compound in test [4]: O=S(=O)(O)C(F)(F)C(F)(F)C(F)(F)C(F)(F)C(F)(F)C(F)(F)C(F)(F)C(F)(F)F [Potassium perfluorooctanesulfonate]
As to the method:
as §1

Regarding BF4T:CD90, the “level (log10)” value in test [1] (6700 nM) is -0.0065 ± 0.0021; in test [1] (20000 nM) it was -0.0035 ± 0.021; in test [1] (60000 nM), -0.0155 ± 0.0035; in test [2] (6700 nM), 0.0025 ± 0.0092; in test [2] (20000 nM) it was 0.009 ± 0.0042; in test [2] (60000 nM) it was 0.0175 ± 0.005. The “level (log10)” value in test [3] (6700 nM) is -0.0035 ± 0.012; in test [3] (20000 nM), -0.0045 ± 0.021; in test [3] (60000 nM) it was -0.0045 ± 0.0035; in test [4] (6700 nM) it was 0.0085 ± 0.0064; in test [4] (20000 nM), -0.0075 ± 0.00071; in test [4] (60000 nM), 0.0075 ± 0.019.
In the case of BF4T:CD106/VCAM-1, the “level (log10)” value in test [1] (6700 nM) was -0.009 ± 0.02; in test [1] (20000 nM), 0 ± 0.0099; in test [1] (60000 nM), -0.0005 ± 0.03; in test [2] (6700 nM), -0.0055 ± 0.023; in test [2] (20000 nM), -0.0095 ± 0.0078; in test [2] (60000 nM) it was -0.002 ± 0.017. The “level (log10)” value in test [3] (6700 nM) is -0.0155 ± 0.0021; in test [3] (20000 nM), -0.0105 ± 0.019; in test [3] (60000 nM), -0.005 ± 0.0071; in test [4] (6700 nM), 0.0115 ± 0.015; in test [4] (20000 nM), -0.014 ± 0.0099; in test [4] (60000 nM), 0.01 ± 0.052.
Turning to BF4T:CXCL8/IL-8, the “level (log10)” value in test [1] (6700 nM) is -0.0035 ± 0.013; in test [1] (20000 nM), -0.0005 ± 0.026; in test [1] (60000 nM), -0.0025 ± 0.03; in test [2] (6700 nM), 0.0125 ± 0.039; in test [2] (20000 nM) it was 0.009 ± 0.041; in test [2] (60000 nM), 0.0345 ± 0.0035. The “level (log10)” value was 0.019 ± 0.071 in test [3] (6700 nM); 0.03 ± 0.071 in test [3] (20000 nM); 0.034 ± 0.089 in test [3] (60000 nM); 0.0005 ± 0.052 in test [4] (6700 nM); -0.0105 ± 0.047 in test [4] (20000 nM); 0.0205 ± 0.0078 in test [4] (60000 nM).
Consider BF4T:IL-1alpha, for which the “level (log10)” value in test [1] (6700 nM) was 0.008 ± 0.0099; in test [1] (20000 nM), 0.003 ± 0.017; in test [1] (60000 nM) it was -0.001 ± 0.024; in test [2] (6700 nM), -0.0065 ± 0.015; in test [2] (20000 nM), -0.0195 ± 0.0035; in test [2] (60000 nM) it was -0.0045 ± 0.033. Moreover, the “level (log10)” value was -0.0125 ± 0.0092 in test [3] (6700 nM); -0.016 in test [3] (20000 nM); -0.007 ± 0.0042 in test [3] (60000 nM); 0.003 ± 0.0028 in test [4] (6700 nM); 0.0065 ± 0.0078 in test [4] (20000 nM); 0.0125 ± 0.044 in test [4] (60000 nM).
Regarding BF4T:Keratin 8/18, the “level (log10)” value in test [1] (6700 nM) is -0.023 ± 0.018; in test [1] (20000 nM), 0.002 ± 0.021; in test [1] (60000 nM), -0.0075 ± 0.023; in test [2] (6700 nM), -0.006 ± 0.013; in test [2] (20000 nM) it was -0.0145 ± 0.015; in test [2] (60000 nM) it was 0.0005 ± 0.00071. Also, the “level (log10)” value in test [3] (6700 nM) was -0.036 ± 0.065; in test [3] (20000 nM) it was -0.025 ± 0.037; in test [3] (60000 nM), -0.019 ± 0.037; in test [4] (6700 nM), -0.0035 ± 0.022; in test [4] (20000 nM), 0.01 ± 0.014; in test [4] (60000 nM), 0.0385 ± 0.053.
For the test system BF4T:MMP-1, the “level (log10)” value is -0.0195 ± 0.0078 in test [1] (6700 nM); 0.0055 ± 0.005 in test [1] (20000 nM); -0.0385 ± 0.011 in test [1] (60000 nM); 0.0035 ± 0.013 in test [2] (6700 nM); 0.0215 ± 0.012 in test [2] (20000 nM); 0.018 ± 0.0099 in test [2] (60000 nM). Moreover, the “level (log10)” value in test [3] (6700 nM) is 0.002 ± 0.013; in test [3] (20000 nM) it was 0.0085 ± 0.00071; in test [3] (60000 nM), -0.002 ± 0.018; in test [4] (6700 nM) it was 0.028 ± 0.017; in test [4] (20000 nM), 0.046 ± 0.0028; in test [4] (60000 nM), 0.062 ± 0.011.
Consider BF4T:MMP-3, for which the “level (log10)” value in test [1] (6700 nM) was -0.007 ± 0.051; in test [1] (20000 nM), 0.0125 ± 0.012; in test [1] (60000 nM), 0.019 ± 0.017; in test [2] (6700 nM) it was -0.0045 ± 0.0092; in test [2] (20000 nM), -0.0125 ± 0.035; in test [2] (60000 nM) it was 0.0175 ± 0.0021. Also, the “level (log10)” value in test [3] (6700 nM) is 0.004 ± 0.016; in test [3] (20000 nM), -0.0135 ± 0.012; in test [3] (60000 nM), 0.0055 ± 0.04; in test [4] (6700 nM), 0.0175 ± 0.028; in test [4] (20000 nM) it was 0.0635 ± 0.026; in test [4] (60000 nM), 0.087 ± 0.065.
BF4T:MMP-9: the “level (log10)” value in test [1] (6700 nM) was -0.0065 ± 0.011; in test [1] (20000 nM) it was 0.0015 ± 0.039; in test [1] (60000 nM) it was -0.031 ± 0.048; in test [2] (6700 nM), -0.003 ± 0.0014; in test [2] (20000 nM) it was -0.0135 ± 0.012; in test [2] (60000 nM) it was 0.007 ± 0.0028. Besides, the “level (log10)” value in test [3] (6700 nM) was -0.03 ± 0.038; in test [3] (20000 nM), -0.001 ± 0.011; in test [3] (60000 nM) it was -0.0145 ± 0.0021; in test [4] (6700 nM), 0.024 ± 0.017; in test [4] (20000 nM) it was 0.048 ± 0.02; in test [4] (60000 nM), 0.0665 ± 0.046.
As to BF4T:PAI-I, the “level (log10)” value was -0.009 ± 0.023 in test [1] (6700 nM); -0.004 ± 0.017 in test [1] (20000 nM); 0.0065 ± 0.005 in test [1] (60000 nM); -0.0085 ± 0.022 in test [2] (6700 nM); -0.002 ± 0.021 in test [2] (20000 nM); 0.0165 ± 0.011 in test [2] (60000 nM). The “level (log10)” value in test [3] (6700 nM) is -0.015 ± 0.0042; in test [3] (20000 nM), -0.009; in test [3] (60000 nM), 0.0025 ± 0.028; in test [4] (6700 nM), 0.0015 ± 0.0092; in test [4] (20000 nM), -0.0045 ± 0.0078; in test [4] (60000 nM), 0.007 ± 0.04.
Consider BF4T:SRB, for which the “level (log10)” value in test [1] (6700 nM) was -0.005 ± 0.0042; in test [1] (20000 nM), 0.008 ± 0.011; in test [1] (60000 nM) it was -0.006 ± 0.0042; in test [2] (6700 nM) it was -0.005 ± 0.0028; in test [2] (20000 nM) it was -0.0065 ± 0.0021; in test [2] (60000 nM), -0.0015 ± 0.0078. The “level (log10)” value in test [3] (6700 nM) was 0.004 ± 0.017; in test [3] (20000 nM), -0.0075 ± 0.0078; in test [3] (60000 nM), 0.009 ± 0.017; in test [4] (6700 nM), -0.01 ± 0.011; in test [4] (20000 nM), -0.01 ± 0.0099; in test [4] (60000 nM), -0.002 ± 0.0099.
Turning to BF4T:tPA, the “level (log10)” value in test [1] (6700 nM) is -0.015 ± 0.034; in test [1] (20000 nM), -0.006 ± 0.017; in test [1] (60000 nM) it was -0.004 ± 0.0042; in test [2] (6700 nM), -0.0195 ± 0.018; in test [2] (20000 nM), -0.0205 ± 0.028; in test [2] (60000 nM) it was -0.0045 ± 0.011. Besides, the “level (log10)” value in test [3] (6700 nM) was -0.0205 ± 0.00071; in test [3] (20000 nM), -0.009 ± 0.013; in test [3] (60000 nM), 0.0155 ± 0.037; in test [4] (6700 nM) it was -0.0045 ± 0.0092; in test [4] (20000 nM), -0.019 ± 0.0028; in test [4] (60000 nM) it was 0.0185 ± 0.032.
Turning to BF4T:uPA, the “level (log10)” value was -0.0175 ± 0.015 in test [1] (6700 nM); -0.004 ± 0.038 in test [1] (20000 nM); 0.016 ± 0.027 in test [1] (60000 nM); -0.009 ± 0.016 in test [2] (6700 nM); -0.0015 ± 0.015 in test [2] (20000 nM); -0.003 ± 0.0028 in test [2] (60000 nM). The “level (log10)” value is -0.002 ± 0.0071 in test [3] (6700 nM); -0.019 ± 0.011 in test [3] (20000 nM); -0.009 ± 0.011 in test [3] (60000 nM); -0.004 ± 0.0028 in test [4] (6700 nM); 0.01 ± 0.016 in test [4] (20000 nM); 0.0395 ± 0.043 in test [4] (60000 nM).

The record behind these values is the supplement of paper PMC10331698.
